# Marks after values point to notes of the source that are not given here.
# Assay: 4-week repeat-dose toxicology study in rats with 2-week recovery (Study 20000328)
# Settings: for Died or Sacrificed Moribund: animals of 15
# [1] = 62.5 mg/kg M, end of dosing, animals of 10
# [2] = 62.5 mg/kg M, end of recovery, animals of 5
# [3] = 125 mg/kg F, end of dosing, animals of 10
# [4] = 125 mg/kg F, end of recovery, animals of 5
smiles,measurement,setting,value
"COC1=C(OC)C(=O)C(C/C=C(\C)CC/C=C(\C)CC/C=C(\C)CC/C=C(\C)CC/C=C(\C)CC/C=C(\C)CC/C=C(\C)CC/C=C(\C)CC/C=C(\C)CCC=C(C)C)=C(C)C1=O [CoQ10, Coenzyme Q10]","Spleen Histiocytic Infiltration, Mild",[1],0
same,"Spleen Histiocytic Infiltration, Moderate",[1],1
same,ALT,"62.5 mg/kg M, end of recovery",20 IU/L
same,APPT,"62.5 mg/kg M, end of recovery",16.7 s
same,AST,"62.5 mg/kg M, end of recovery",79 IU/L
same,"Body Weight, percent difference from controls","62.5 mg/kg M, end of recovery",+7.4%
same,"Food Consumption, percent difference from controls","62.5 mg/kg M, end of recovery",+5.8%
same,GGT,"62.5 mg/kg M, end of recovery",0.00 IU/L
same,"Liver weight (absolute), percent difference from controls","62.5 mg/kg M, end of recovery",+5.0%
same,"Spleen weight (absolute), percent difference from controls","62.5 mg/kg M, end of recovery",−22.2%
same,Adrenal Gland Vacuolation,[2],5
same,"Adrenal Gland Vacuolation, Marked",[2],0
same,"Adrenal Gland Vacuolation, Mild",[2],3
same,"Adrenal Gland Vacuolation, Minimal",[2],2
same,"Adrenal Gland Vacuolation, Moderate",[2],0
same,Gross Pathology: Enlarged Spleen,[2],0
same,Gross Pathology: Pale Iliac Lymph Node,[2],2
same,Gross Pathology: Pale Liver,[2],2
same,Gross Pathology: Pale Pancreatic Lymph Node,[2],1
same,Liver Focal Necrosis,[2],0
same,"Liver Focal Necrosis, Mild",[2],0
same,"Liver Focal Necrosis, Minimal",[2],0
same,Liver Histiocytic Infiltration,[2],1
same,"Liver Histiocytic Infiltration, Mild",[2],0
same,"Liver Histiocytic Infiltration, Minimal",[2],1
same,"Liver Histiocytic Infiltration, Moderate",[2],0
same,Liver Multifocal Necrosis,[2],0
same,"Liver Multifocal Necrosis, Mild",[2],0
same,"Liver Multifocal Necrosis, Moderate",[2],0
same,Liver Vacuolation,[2],5
same,"Liver Vacuolation, Mild",[2],1
same,"Liver Vacuolation, Minimal",[2],4
same,"Liver Vacuolation, Moderate",[2],0
same,"Lymph Node, Man. Histiocytic Infiltration",[2],4
same,"Lymph Node, Man. Histiocytic Infiltration, Mild",[2],0
same,"Lymph Node, Man. Histiocytic Infiltration, Minimal",[2],4
same,"Lymph Node, Man. Histiocytic Infiltration, Moderate",[2],0
same,"Lymph Node, Mes. Histiocytic Infiltration",[2],5
same,"Lymph Node, Mes. Histiocytic Infiltration, Mild",[2],1
same,"Lymph Node, Mes. Histiocytic Infiltration, Minimal",[2],4
same,Spleen Histiocytic Infiltration,[2],2
same,"Spleen Histiocytic Infiltration, Marked",[2],0
same,"Spleen Histiocytic Infiltration, Mild",[2],0
same,"Spleen Histiocytic Infiltration, Minimal",[2],2
same,"Spleen Histiocytic Infiltration, Moderate",[2],0
same,Died or Sacrificed Moribund,125 mg/kg F,0
same,ALT,"125 mg/kg F, end of dosing",20 IU/L
same,APPT,"125 mg/kg F, end of dosing",14.4* seconds
same,AST,"125 mg/kg F, end of dosing",76* IU/L
same,"Body Weight, percent difference from controls","125 mg/kg F, end of dosing",−5.5%
same,Eosinophils,"125 mg/kg F, end of dosing",0.08 10^3/cmm
same,Erythrocytes,"125 mg/kg F, end of dosing",6.90* 10^6/cmm
same,"Food Consumption, percent difference from controls","125 mg/kg F, end of dosing",−12.5* %
same,GGT,"125 mg/kg F, end of dosing",0.53 IU/L
same,Hematocrit,"125 mg/kg F, end of dosing",39.1* %
same,Hemoglobin,"125 mg/kg F, end of dosing",13.5 g/dL
same,Leukocytes,"125 mg/kg F, end of dosing",9.49 10^3/cmm
same,"Liver weight (absolute), percent difference from controls","125 mg/kg F, end of dosing",−0.6%
same,Lymphocytes,"125 mg/kg F, end of dosing",7.35 10^3/cmm
same,Neutrophils,"125 mg/kg F, end of dosing",1.64 10^3/cmm
same,"Spleen weight (absolute), percent difference from controls","125 mg/kg F, end of dosing",−11.2%
same,"Bone Marrow, Sternum Hyperplasia",[3],0
same,"Bone Marrow, Sternum Hyperplasia, Mild",[3],0
same,"Bone Marrow, Sternum Hyperplasia, Minimal",[3],0
same,Gross Pathology: Enlarged Pancreatic Lymph Nodes,[3],1
same,Gross Pathology: Pale Adrenal,[3],0
same,Gross Pathology: Pale Liver,[3],10
same,Gross Pathology: Pale Lymph Nodes,[3],0
same,Gross Pathology: Pale Ovaries,[3],1
same,Gross Pathology: Pale Pituitary,[3],0
same,Gross Pathology: Pale SQ Skin,[3],3
same,Liver Focal Necrosis,[3],0
same,"Liver Focal Necrosis, Minimal",[3],0
same,Liver Histiocytic Infiltration,[3],9
same,"Liver Histiocytic Infiltration, Mild",[3],7
same,"Liver Histiocytic Infiltration, Minimal",[3],1
same,"Liver Histiocytic Infiltration, Moderate",[3],1
same,Liver Vacuolation,[3],10
same,"Liver Vacuolation, Mild",[3],4
same,"Liver Vacuolation, Minimal",[3],6
same,"Lymph Node, Man. Histiocytic Infiltration",[3],3
same,"Lymph Node, Man. Histiocytic Infiltration, Mild",[3],0
same,"Lymph Node, Man. Histiocytic Infiltration, Minimal",[3],2
same,"Lymph Node, Man. Histiocytic Infiltration, Moderate",[3],1
same,"Lymph Node, Mes. Histiocytic Infiltration",[3],10
same,"Lymph Node, Mes. Histiocytic Infiltration, Mild",[3],5
same,"Lymph Node, Mes. Histiocytic Infiltration, Minimal",[3],5
same,"Lymph Node, Mes. Histiocytic Infiltration, Moderate",[3],0
same,Ovary Histiocytic Infiltration,[3],10
same,"Ovary Histiocytic Infiltration, Mild",[3],0
same,"Ovary Histiocytic Infiltration, Minimal",[3],10
same,"Ovary Histiocytic Infiltration, Moderate",[3],0
same,"Skin, Dermis Histiocytic Infiltration",[3],2
same,"Skin, Dermis Histiocytic Infiltration, Marked",[3],0
same,"Skin, Dermis Histiocytic Infiltration, Mild",[3],1
same,"Skin, Dermis Histiocytic Infiltration, Moderate",[3],1
same,"Skin, SQ Histiocytic Infiltration",[3],2
same,"Skin, SQ Histiocytic Infiltration, Mild",[3],2
same,Spleen Histiocytic Infiltration,[3],9
same,"Spleen Histiocytic Infiltration, Marked",[3],1
same,"Spleen Histiocytic Infiltration, Mild",[3],4
same,"Spleen Histiocytic Infiltration, Moderate",[3],3
same,ALT,"125 mg/kg F, end of recovery",21 IU/L
same,APPT,"125 mg/kg F, end of recovery",15.4 s
same,AST,"125 mg/kg F, end of recovery",68 IU/L
same,"Body Weight, percent difference from controls","125 mg/kg F, end of recovery",−3.9%
same,"Food Consumption, percent difference from controls","125 mg/kg F, end of recovery",−10.5%
same,GGT,"125 mg/kg F, end of recovery",0.63* IU/L
same,"Liver weight (absolute), percent difference from controls","125 mg/kg F, end of recovery",+3.5%
same,"Spleen weight (absolute), percent difference from controls","125 mg/kg F, end of recovery",−3.4%
same,Adrenal Gland Vacuolation,[4],5
same,"Adrenal Gland Vacuolation, Marked",[4],0
same,"Adrenal Gland Vacuolation, Mild",[4],4
same,"Adrenal Gland Vacuolation, Minimal",[4],0
same,"Adrenal Gland Vacuolation, Moderate",[4],1
same,Gross Pathology: Enlarged Spleen,[4],0
same,Gross Pathology: Pale Iliac Lymph Node,[4],3
same,Gross Pathology: Pale Liver,[4],5
same,Gross Pathology: Pale Ovaries,[4],0
same,Gross Pathology: Pale Pancreatic Lymph Node,[4],2
same,Liver Focal Necrosis,[4],0
same,"Liver Focal Necrosis, Mild",[4],0
same,"Liver Focal Necrosis, Minimal",[4],0
same,Liver Histiocytic Infiltration,[4],5
same,"Liver Histiocytic Infiltration, Mild",[4],3
same,"Liver Histiocytic Infiltration, Minimal",[4],2
same,"Liver Histiocytic Infiltration, Moderate",[4],0
same,Liver Multifocal Necrosis,[4],1
same,"Liver Multifocal Necrosis, Mild",[4],1
same,"Liver Multifocal Necrosis, Moderate",[4],0
same,Liver Vacuolation,[4],5
same,"Liver Vacuolation, Mild",[4],4
same,"Liver Vacuolation, Minimal",[4],0
same,"Liver Vacuolation, Moderate",[4],1
same,"Lymph Node, Man. Histiocytic Infiltration",[4],1
same,"Lymph Node, Man. Histiocytic Infiltration, Mild",[4],0
same,"Lymph Node, Man. Histiocytic Infiltration, Minimal",[4],2
same,"Lymph Node, Man. Histiocytic Infiltration, Moderate",[4],0
same,"Lymph Node, Mes. Histiocytic Infiltration",[4],5
same,"Lymph Node, Mes. Histiocytic Infiltration, Mild",[4],1
same,"Lymph Node, Mes. Histiocytic Infiltration, Minimal",[4],4
same,Ovary Histiocytic Infiltration,[4],5
same,"Ovary Histiocytic Infiltration, Mild",[4],2
same,"Ovary Histiocytic Infiltration, Minimal",[4],3
same,"Ovary Histiocytic Infiltration, Moderate",[4],0
same,Spleen Histiocytic Infiltration,[4],2
same,"Spleen Histiocytic Infiltration, Marked",[4],0
same,"Spleen Histiocytic Infiltration, Mild",[4],0
same,"Spleen Histiocytic Infiltration, Minimal",[4],2
same,"Spleen Histiocytic Infiltration, Moderate",[4],0
same,Died or Sacrificed Moribund,125 mg/kg M,0
same,ALT,"125 mg/kg M, end of dosing",25 IU/L
same,APPT,"125 mg/kg M, end of dosing",15.9* seconds
same,AST,"125 mg/kg M, end of dosing",83 IU/L
same,"Body Weight, percent difference from controls","125 mg/kg M, end of dosing",−8.7* %
same,Eosinophils,"125 mg/kg M, end of dosing",0.08 10^3/cmm

# — patent US11400058B2, “Intravenous formulations of coenzyme Q10 (CoQ10) and methods of use thereof” (Berg LLC, priority 2010, dated 2022)
